Patent US20250281485A1, “DIAGNOSIS AND/OR TREATMENT OF HEART FAILURE WITH PRESERVED EJECTION FRACTION” (UNIVERSITEIT MAASTRICHT, priority 2022, published 2025)
Where two headings read alike, the source gives them in different places. Blank lines part the entries; values can stand above or below the molecule they belong to.

Legend:
[1] = target: T1, sGC (Homo sapiens, UniProt Q02108+Q02153); test: pVASP/VASP concentration response in fresh P-WBC, sGC stimulator; format: cell-based
T1 construct: P-WBC is isolated after a 800g centrifugation and treated with sGCs or sGCa; endogenous in cells; host or cells: fresh human platelet-enriched white-blood-cell fraction (P-WBC) from healthy volunteers
T1 sequence (Q02153 1-619): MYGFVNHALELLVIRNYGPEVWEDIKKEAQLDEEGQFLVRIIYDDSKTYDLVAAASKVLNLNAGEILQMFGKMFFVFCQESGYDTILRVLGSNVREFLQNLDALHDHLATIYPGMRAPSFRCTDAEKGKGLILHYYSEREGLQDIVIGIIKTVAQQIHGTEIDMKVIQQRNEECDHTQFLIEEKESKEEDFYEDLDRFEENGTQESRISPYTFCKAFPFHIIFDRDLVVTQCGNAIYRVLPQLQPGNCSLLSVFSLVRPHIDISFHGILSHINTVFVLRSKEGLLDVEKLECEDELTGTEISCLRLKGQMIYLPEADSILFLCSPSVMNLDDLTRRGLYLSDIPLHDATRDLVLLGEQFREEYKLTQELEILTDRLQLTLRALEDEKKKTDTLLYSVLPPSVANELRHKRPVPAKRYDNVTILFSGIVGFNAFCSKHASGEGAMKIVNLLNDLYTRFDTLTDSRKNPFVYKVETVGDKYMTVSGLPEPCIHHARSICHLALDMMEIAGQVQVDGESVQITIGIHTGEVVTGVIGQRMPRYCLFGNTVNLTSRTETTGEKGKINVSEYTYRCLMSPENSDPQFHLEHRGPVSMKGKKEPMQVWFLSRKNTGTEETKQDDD
T1 sequence (Q02108 1-690): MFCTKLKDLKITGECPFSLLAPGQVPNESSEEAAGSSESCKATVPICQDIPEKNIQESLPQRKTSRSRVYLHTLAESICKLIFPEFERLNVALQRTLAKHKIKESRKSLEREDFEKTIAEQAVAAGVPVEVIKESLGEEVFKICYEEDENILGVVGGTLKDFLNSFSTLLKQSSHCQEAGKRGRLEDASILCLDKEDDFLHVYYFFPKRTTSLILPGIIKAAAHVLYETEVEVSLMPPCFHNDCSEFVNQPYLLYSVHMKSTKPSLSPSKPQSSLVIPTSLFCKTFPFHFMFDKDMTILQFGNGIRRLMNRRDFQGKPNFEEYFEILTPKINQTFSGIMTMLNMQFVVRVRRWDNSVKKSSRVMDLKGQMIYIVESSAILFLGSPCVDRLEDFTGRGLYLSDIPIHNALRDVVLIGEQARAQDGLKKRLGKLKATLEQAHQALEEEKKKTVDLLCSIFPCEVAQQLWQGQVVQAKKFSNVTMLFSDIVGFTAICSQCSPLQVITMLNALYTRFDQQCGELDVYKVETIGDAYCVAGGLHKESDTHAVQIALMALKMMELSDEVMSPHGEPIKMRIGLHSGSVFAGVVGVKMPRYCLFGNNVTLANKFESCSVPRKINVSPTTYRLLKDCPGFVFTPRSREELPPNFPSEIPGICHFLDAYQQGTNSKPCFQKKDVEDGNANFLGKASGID
Protocol: (§1) Human blood was collected from healthy volunteers after obtaining informed consent according to the Declaration of Helsinki. An ethical approval was granted by the FHML Research Ethics Committee of Maastricht University (FHML-REC/2022/055). Whole blood (WB) was collected by venipuncture in ACD-A tubes (sodium citrate: 22.0 g/L, dextrose 24.5 g/L, citric acid: 8.0 g/L). Centrifugations in various speeds (200 g, 400g, 600g, 800g) were performed for 10 minutes in 18 degrees Celsius (acceleration 1, deceleration 0). Plasma was collected and P-WBC was carefully isolated (500 μl). Cell counting was performed with the automated haematology analyzer Sysmex XP-300. Subsequently, P-WBC was diluted with the same volume of JNL-buffer (130 mM NaCl, 3 mM KCl, 9 mM NaHCO3, 0.81 mM KH2PO4, 0.9 mM MgCI2, 10 mM sodium citrate, 6 mM dextrose, 10 mM Tris base, 2 mM HEPES) pH 7.4. Thereafter, 20 μl of diluted P-WBC were further diluted 1:5 with JNL-buffer for the cell treatments. Cell suspensions were treated with BAY 41-2272 (30 μM) and BAY 58-2667 (10 μM) for 10 minutes at 37° C., and with riociguat and runcaciguat for 15 minutes; in some cases with 10 minutes pretreatment with IBMX. Samples were centrifuged for 10 minutes at 750 g. […]
(§2) All data are expressed as mean±standard error of mean (SEM) of at least three independent experiments. […]

[2] = target: T2, apo-sGC (Homo sapiens, UniProt Q02108+Q02153); test: pVASP/VASP concentration response in fresh P-WBC, sGC activator; format: cell-based
T2 construct: P-WBC is isolated after a 800g centrifugation and treated with sGCs or sGCa; endogenous in cells; host or cells: fresh human platelet-enriched white-blood-cell fraction (P-WBC) from healthy volunteers
T2 sequence (Q02153 1-619): T1 sequence (Q02153 1-619)
T2 sequence (Q02108 1-690): T1 sequence (Q02108 1-690)
Protocol: as §1, §2

[3] = test system: HFpEF patients; details: JAMA 2020; cited from earlier work
[4] = test system: HFpEF patients; details: JAMA 2020; cited from earlier work; remark: listed apart in the source
[5] = test system: HFpEF patients; details: JAMA 2013; cited from earlier work
[6] = in the presence of 500 μM IBMX (FIG. 14D)

SMILES: COC(=O)N(C)c1c(N)nc(-c2nn(Cc3ccccc3F)c3ncccc23)nc1N [riociguat, Methyl N-[4,6-Diamino-2-[1-[(2-fluorophenyl)methyl]-1H-pyrazolo[3,4-b]pyridin-3-yl]-5-pyrimidinyl]-N-methyl-carbaminate]
concentration at which pVASP response peaked [1, 6]: 100 μM
concentration of maximum effect, pVASP concentration response curve ([1]; without IBMX (FIG. 14B)): > 100 μM

concentration at which pVASP response peaked [2, 6]: 1 μM
concentration of maximum effect, pVASP concentration response curve ([2]; without IBMX (FIG. 14B)): 100 μM
SMILES: C[C@H]([C@H](C(=O)Nc1cc([C@@H](CC(=O)O)C2CC2)ccc1Cl)c1ccc(Cl)cc1)C(F)(F)F [runcaciguat]

SMILES: OC(CNc1nc(-c2cc(-c3ccon3)n(Cc3ccccc3F)n2)ncc1F)(C(F)(F)F)C(F)(F)F [Praliciguat]
trial outcome [3]: failed

SMILES: COC(=O)Nc1c(N)nc(-c2nn(Cc3ccccc3F)c3ncc(F)cc23)nc1N [vericiguat, methyl N-[4,6-diamino-2-[5-fluoro-1-[(2-fluorophenyl)methyl]pyrazolo[3,4-b]pyridin-3-yl]pyrimidin-5-yl]carbamate]
trial outcome [4]: failed

SMILES: CCCc1nn(C)c2c(=O)[nH]c(-c3cc(S(=O)(=O)N4CCN(C)CC4)ccc3OCC)nc12 [sildenafil]
trial outcome [5]: failure
